Drawing on US9718828B2 (MERCK SHARP & DOHME CORP., priority 2011, dated 2017), this text covers EC50 for 27 compounds.

Where a name gives a salt, the structure may show the parent alone. Some results are limits rather than exact numbers.

By EC50 is commonly meant the concentration giving half of the maximal effect.

The first assay deals with Btk enzyme (His-Btk) (Homo sapiens (Human), UniProt Q06187). Description: Btk enzyme activity, IMAP fluorescence polarization assay (Assay Method A).
Chain of Btk enzyme (His-Btk) (Q06187 whole entry): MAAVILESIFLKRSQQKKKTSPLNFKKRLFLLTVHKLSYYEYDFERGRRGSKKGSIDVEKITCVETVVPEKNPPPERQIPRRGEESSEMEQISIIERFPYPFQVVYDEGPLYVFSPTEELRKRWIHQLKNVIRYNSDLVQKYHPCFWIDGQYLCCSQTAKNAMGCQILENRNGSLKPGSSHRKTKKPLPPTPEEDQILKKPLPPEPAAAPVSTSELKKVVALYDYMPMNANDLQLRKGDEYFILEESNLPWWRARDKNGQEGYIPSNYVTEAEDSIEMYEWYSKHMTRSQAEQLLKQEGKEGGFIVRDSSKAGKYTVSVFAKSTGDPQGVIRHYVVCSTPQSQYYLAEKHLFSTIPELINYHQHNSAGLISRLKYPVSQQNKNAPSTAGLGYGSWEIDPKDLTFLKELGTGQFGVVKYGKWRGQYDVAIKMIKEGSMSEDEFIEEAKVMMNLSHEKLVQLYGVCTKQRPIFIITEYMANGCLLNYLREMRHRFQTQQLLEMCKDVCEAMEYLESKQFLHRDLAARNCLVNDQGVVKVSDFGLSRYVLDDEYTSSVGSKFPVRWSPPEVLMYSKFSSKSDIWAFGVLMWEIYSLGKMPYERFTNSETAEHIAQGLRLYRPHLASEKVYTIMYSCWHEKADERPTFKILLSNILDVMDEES
Settings: not given
(In fluorescence polarisation assays a small probe gives low polarisation when free and higher when bound to something large.)
Turning to `CS(=O)(=O)N1CCC[C@@H](c2nc(-c3ccc(C(=O)Nc4ccccn4)cc3)c3c(N)nccn23)C1` [Example 49, (R)-4-(8-amino-3-(1-(methylsulfonyl)piperidin-3-yl)imidazo[1,5-a]pyrazin-1-yl)-N-(pyridin-2-yl)benzamide], the 50% effective concentration (EC50) is 100 to 1000 nM.

For `Nc1ncnc2c1c(-c1ccc(C(=O)Nc3cc(C(F)(F)F)ccn3)cc1)nn2[C@@H]1CCCN(C(=O)C(Cl)(Cl)Cl)C1` [Example 265, (R)-4-(4-amino-1-(1-(2,2,2-trichloroacetyl)piperidin-3-yl)-1H-pyrazolo[3,4-d]pyrimidin-3-yl)-N-(4-(trifluoromethyl)pyridin-2-yl)benzamide], the 50% effective concentration (EC50) was in the range of 10 to 100 nM.

In turn, `CC1(C)CC(c2nc(-c3ccc(C(=O)Nc4cc(C#N)ccn4)cc3)c3c(N)nccn23)CCO1` (stereo not drawn) [Example 37, 4-(8-amino-3-(2,2-dimethyltetrahydro-2H-pyran-4-yl)imidazo[1,5-a]pyrazin-1-yl)-N-(4-cyanopyridin-2-yl)benzamide] yielded an EC50 of 10 to 100 nM.

In turn, `CC(C)(F)C(=O)N1CCC[C@@H](c2nc(-c3ccc(C(=O)Nc4cc(C5CC5)ccn4)cc3)c3c(N)nccn23)C1` [Example 64, (R)-4-(8-amino-3-(1-(2-fluoro-2-methylpropanoyl)piperidin-3-yl)imidazo[1,5-a]pyrazin-1-yl)-N-(4-cyclopropylpyridin-2-yl)benzamide] displayed an EC50 of less than 10 nM.

As for `CN1CCc2nc(NC(=O)c3ccc(-c4nc([C@H]5CC[C@H](O)CC5)n5ccnc(N)c45)cc3)sc2C1` [Example 18, 4-(8-amino-3-((trans)-4-hydroxycyclohexyl)imidazo[1,5-a]pyrazin-1-yl)-N-(5-methyl-4,5,6,7-tetrahydrothiazolo[5,4-c]pyridin-2-yl)benzamide], the EC50 is 100 to 1000 nM.

`CC(C)C(=O)N1CCC(c2nc(-c3ccc(C(=O)Nc4ccccn4)cc3)c3c(N)nccn23)CC1` [Example 129, 4-(8-amino-3-(1-isobutyrylpiperidin-4-yl)imidazo[1,5-a]pyrazin-1-yl)-N-(pyridin-2-yl)benzamide] returned an EC50 of 100 to 1000 nM.

`CCOC(=O)c1cnc(N)c2c(-c3ccc(C(=O)Nc4cc(C(F)(F)F)ccn4)cc3)nc([C@@H]3CCCN(C(=O)C4(C)COC4)C3)n12` [Example 299, (R)-ethyl 8-amino-3-(1-(3-methyloxetane-3-carbonyl)piperidin-3-yl)-1-(4-(4-(trifluoromethyl)pyridine-2-ylcarbamoyl)phenyl)imidazo[1,5-a]pyrazine-5-carboxylate] registered a concentration for a half-maximal effect (EC50) of less than 10 nM.

As for `Nc1nccn2c(C3CCc4[nH]nc(C5CC5)c4C3)nc(-c3ccc(C(=O)Nc4cc(C(F)(F)F)ccn4)cc3)c12` (stereo not drawn) [Example 248, 4-(8-amino-3-(3-cyclopropyl-4,5,6,7-tetrahydro-1H-indazol-5-yl)imidazo[1,5-a]pyrazin-1-yl)-N-(4-(trifluoromethyl)pyridin-2-yl)benzamide], the EC50 was less than 10 nM.

Still in this assay, the particulars now being: read-out: EC50 Btk activity values - Assay Method A; IMAP-FP, 60 min pre-incubation, 5 μM ATP; class 100-1000 is given as ≧100 nM-<1 μM.
As for `CCOCCC(=O)N1CCC[C@@H](c2nc(-c3ccc(C(=O)Nc4cc(C(F)(F)F)ccn4)cc3)c3c(N)ncnn23)C1` [Example 259, (R)-4-(4-amino-7-(1-(3-ethoxypropanoyl)piperidin-3-yl)imidazo[1,5-f][1,2,4]triazin-5-yl)-N-(4-(trifluoromethyl)pyridin-2-yl)benzamide], the EC50 was less than 10 nM.

With `Nc1nccn2c([C@@H]3CCCN(Cc4ccncc4)C3)nc(-c3ccc(C(=O)Nc4cc(C(F)(F)F)ccn4)cc3)c12` [Example 141, (R)-4-(8-amino-3-(1-(pyridin-4-ylmethyl)piperidin-3-yl)imidazo[1,5-a]pyrazin-1-yl)-N-(4-(trifluoromethyl)pyridin-2-yl)benzamide, TFA salt], the EC50 is less than 10 nM.

Take `CCC(=O)NCC(C)c1nc(-c2ccc(C(=O)Nc3cc(C(F)(F)F)ccn3)cc2)c2c(N)nccn12` (stereo not drawn) [Example 130, 4-(8-amino-3-(1-propionamidopropan-2-yl)imidazo[1,5-a]pyrazin-1-yl)-N-(4-(trifluoromethyl)pyridin-2-yl)benzamide]: the concentration giving a half-maximal response (EC50) was less than 10 nM.

Take `Nc1nccn2c([C@@H]3CCCN(C(=O)CN4CCOC4=O)C3)nc(-c3ccc(C(=O)Nc4cc(C5CC5)ccn4)cc3)c12` [Example 110, (R)-4-(8-amino-3-(1-(2-(2-oxooxazolidin-3-yl)acetyl)piperidin-3-yl)imidazo[1,5-a]pyrazin-1-yl)-N-(4-cyclopropylpyridin-2-yl)benzamide]: the EC50 is less than 10 nM.

On to `COCCOCCC(=O)N1CCC[C@@H](n2nc(-c3ccc(C(=O)Nc4cc(C(F)(F)F)ccn4)cc3)c3c(N)ncnc32)C1` [Example 275, (R)-4-(4-amino-1-(1-(3-(2-methoxyethoxy)propanoyl)piperidin-3-yl)-1H-pyrazolo[3,4-d]pyrimidin-3-yl)-N-(4-(trifluoromethyl)pyridin-2-yl)benzamide], for which the EC50 is less than 10 nM.

Regarding `CCNC(=O)N1CCC[C@@H](c2nc(-c3ccc(C(=O)Nc4ccccn4)cc3)c3c(N)nccn23)C1` [Example 48, (R)-3-(8-amino-1-(4-(pyridin-2-ylcarbamoyl)phenyl)imidazo[1,5-a]pyrazin-3-yl)-N-ethylpiperidine-1-carboxamide], the EC50 is less than 10 nM.

As for `CCCc1ccnc(NC(=O)c2ccc(-c3nc([C@H]4CC[C@@H](OC)CC4)n4ccnc(N)c34)cc2)c1` [Example 42, 4-(8-amino-3-((cis)-4-methoxycyclohexyl)imidazo [1,5-a]pyrazin-1-yl)-N-(4-propylpyridin-2-yl)benzamide], the concentration for a half-maximal effect (EC50) was less than 10 nM.

On to `C[C@H]1CC[C@@H](c2nc(-c3ccc(C(=O)Nc4ccccn4)cc3)c3c(N)nccn23)CN1C(=O)C1CC1` (relative stereo) [Example 192, 4-(8-amino-3-((cis)-1-(cyclopropanecarbonyl)-6-methylpiperidin-3-yl)imidazo[1,5-a]pyrazin-1-yl)-N-(pyridin-2-yl)benzamide, TFA salt], for which the EC50 is less than 10 nM.

As for `CC1(C(=O)N2CCC[C@@H](c3nc(-c4ccc(C(=O)Nc5cc(C(F)(F)F)ccn5)cc4)c4c(N)ncc(Cl)n34)C2)COC1` [Example 301, (R)-4-(8-amino-5-chloro-3-(1-(3-methyloxetane-3-carbonyl)piperidin-3-yl)imidazo[1,5-a]pyrazin-1-yl)-N-(4-(trifluoromethyl)pyridin-2-yl)benzamide], the half-maximal effective concentration (EC50) was less than 10 nM.

Turning to `Nc1nccn2c(N3CCCC(C(=O)NCC4CC4)C3)nc(-c3ccc(C(=O)Nc4cc(C5CC5)ccn4)cc3)c12` (stereo not drawn) [Example 245, 1-(8-amino-1-(4-(4-cyclopropylpyridin-2-ylcarbamoyl)phenyl)imidazo[1,5-a]pyrazin-3-yl)-N-(cyclopropylmethyl)piperidine-3-carboxamide, TFA salt], the concentration giving a half-maximal response (EC50) is less than 10 nM.

Regarding `CCCc1ccnc(NC(=O)c2ccc(-c3nc([C@H]4[C@@H]5COC[C@@H]54)n4ccnc(N)c34)cc2)c1` [Example 30, 4-(8-amino-3-((1R,5S,6S)-3-oxabicyc1o[3.1.0]hexan-6-yl)imidazo[1,5-a]pyrazin-1-yl)-N-(4-propylpyridin-2-yl)benzamide, TFA salt], the 50% effective concentration (EC50) was less than 10 nM.

Take `CC1(C(=O)N2CCC[C@@H](c3nc(-c4ccc(C(=O)Nc5cc(C(F)(F)F)ccn5)cc4)c4c(N)ncnn34)C2)COC1` [Example 261, (R)-4-(4-amino-7-(1-(3-methyloxetane-3-carbonyl)piperidin-3-yl)imidazo[1,5-f][1,2,4]triazin-5-yl)-N-(4-(trifluoromethyl)pyridin-2-yl)benzamide]: the EC50 is less than 10 nM.

In the case of `C[C@H]1CC[C@@H](c2nc(-c3ccc(C(=O)Nc4cc(C5CC5)ccn4)cc3)c3c(N)nccn23)CN1C(=O)CN1CCOC1=O` (relative stereo) [Example 196, 4-(8-amino-3-((cis)-6-methyl-1-(2-(2-oxooxazolidin-3-yl)acetyl)piperidin-3-yl)imidazo[1,5-a]pyrazin-1-yl)-N-(4-cyclopropylpyridin-2-yl)benzamide, TFA salt], the EC50 was less than 10 nM.

For `CC(C)NC(=O)C1CCCN(c2nc(-c3ccc(C(=O)Nc4cc(C(F)(F)F)ccn4)cc3)c3c(N)nccn23)C1` (stereo not drawn) [Example 224, 1-(8-amino-1-(4-(4-(trifluoromethyl)pyridin-2-ylcarbamoyl)phenyl)imidazo[1,5-a]pyrazin-3-yl)-N-isopropylpiperidine-3-carboxamide], the concentration giving a half-maximal response (EC50) was less than 10 nM.

For `CCC(=O)N[C@H]1CCC[C@@H](c2nc(-c3ccc(C(=O)Nc4cc(C(F)(F)F)ccn4)cc3)c3c(N)nccn23)C1` (relative stereo) [Example 161, 4-(8-amino-3-((cis)-3-propionamidocyclohexyl)imidazo[1,5-a]pyrazin-1-yl)-N-(4-(trifluoromethyl)pyridin-2-yl)benzamide], the concentration giving a half-maximal response (EC50) was less than 10 nM.

In the case of `CCN(CC)C(=O)C1CCCN(c2nc(-c3ccc(C(=O)Nc4cc(C5CC5)ccn4)cc3)c3c(N)nccn23)C1` (stereo not drawn) [Example 246, 1-(8-amino-1-(4-(4-cyclopropylpyridin-2-ylcarbamoyl)phenyl)imidazo[1,5-a]pyrazin-3-yl)-N,N-diethylpiperidine-3-carboxamide, TFA salt], the 50% effective concentration (EC50) was less than 10 nM.

In the case of `Nc1nccn2c1c(-c1ccc(C(=O)Nc3cc(C4CC4)ccn3)cc1)nc2[C@H]1CC[C@H](O)CC1` [Example 7, 4-(8-amino-3-((trans)-4-hydroxycyclohexyl)imidazo[1,5-a]pyrazin-1-yl)-N-(4-cyclopropylpyridin-2-yl)benzamide], the EC50 is less than 10 nM.

For `C[C@H]1CC[C@@H](c2nc(-c3ccc(C(=O)Nc4ccccn4)cc3)c3c(N)nccn23)CN1C(=O)C1CCC1` (relative stereo) [Example 204, 4-(8-amino-3-((cis)-1-(cyclobutanecarbonyl)-6-methylpiperidin-3-yl)imidazo[1,5-a]pyrazin-1-yl)-N-(pyridin-2-yl)benzamide, TFA salt], the half-maximal effective concentration (EC50) is less than 10 nM.

On to `Nc1nccn2c([C@@H]3CCCN(C(=O)Nc4ccccc4Cl)C3)nc(-c3ccc(C(=O)Nc4cc(C5CC5)ccn4)cc3)c12` [Example 120, (R)-3-(8-amino-1-(4-(4-cyclopropylpyridin-2-ylcarbamoyl)phenyl)imidazo [1,5-a]pyrazin-3-yl)-N-(2-chlorophenyl)piperidine-1-carboxamide], for which the EC50 is less than 10 nM.
